Patent publication US11246876B2, “Anti-cancer effects of JAK2 inhibitors in combination with thalidomide derivatives and glucocorticoids” (OncoTracker, Inc., priority 2014, dated 2022)

Columns and labels:
LAGκ-1A tumors = test: LAGκ-1A human multiple myeloma xenograft in SCID mice; type: in vivo; conditions: ruxolitinib 1.5 mg/kg i.p. twice daily, dexamethasone 1 mg/kg i.p. once daily, lenalidomide 15 mg/kg oral gavage once daily
Protocol: (§1) The combination of the JAK2 inhibitor ruxolitinib with lenalidomide and dexamethasone was tested on human multiple myeloma tumors in vivo. The anti-multiple myeloma effects of ruxolitinib were evaluated with mice bearing either LAGκ-1A (bortezomib- and melphalan-sensitive) or LAGκ-2 (bortezomib- and melphalan-resistant) tumors, both of which were originally derived from bone marrow biopsies from multiple myeloma patients. These tumors closely resemble human multiple myeloma and have been passaged through multiple generations of mice with consistent growth and chemoresistance patterns.
Following intramuscular implantation of LAGκ-1A tumor tissue, mice underwent treatment with vehicle control, ruxolitinib, dexamethasone, lenalidomide, ruxolitinib and dexamethasone, ruxolitinib and lenalidomide, dexamethasone and lenalidomide, or ruxolitinib with lenalidomide and dexamethasone (see FIG. 8A). Ruxolitinib was administered via injection at 1.5 mg/kg i.p., twice daily; dexamethasone was administered at 1 mg/kg i.p., once daily, and lenalidomide was administered via oral gavage at 15 mg/kg, once daily. When ruxolitinib, lenalidomide, or dexamethasone was administered individually, LAGκ-1A tumor growth was not inhibited compared to control.
(§2) Six- to 8-week-old male severe combined immunodeficient (SCID) mice were obtained from the Jackson Laboratory (Bar Harbor, Me., USA) and maintained in a specific pathogen-free area in our animal resources facility. Human myeloma tumors (LAGκ-1A or LAGκ-2) which have been maintained in our laboratory for many years were excised from an anaesthetized tumor containing donor mouse, sectioned into 20-40 mm3 pieces, and surgically implanted into the left superficial gluteal muscle of the anaesthetized naive SCID mice. Recipient mice received weekly injections of anti-asialo GM1 rabbit serum (Wako Bioproducts, Richmond, Va., USA) to further suppress immune activity and allow growth of the human tumor. All animal studies were conducted according to protocols approved by the Institutional Animal Care and Use Committee. […]

LAGκ-2 tumors = test: LAGκ-2 human multiple myeloma xenograft in SCID mice; type: in vivo; conditions: dosing as for LAGκ-1A (dexamethasone 1.5 mg/kg for LAGκ-2)
Protocol: as §1
In another experiment, mice received an intramuscular implantation of LAGκ-2 tumor tissue, and then underwent treatment with vehicle control, ruxolitinib, dexamethasone, lenalidomide, ruxolitinib and dexamethasone, ruxolitinib and lenalidomide, dexamethasone and lenalidomide, or ruxolitinib with lenalidomide and dexamethasone, as described above (see FIG. 8B). Similar to the effects on LAGκ-1A tumors, when ruxolitinib, lenalidomide, or dexamethasone was administered individually, LAGκ-2 tumor growth was not inhibited compared to control.
as §2, with “Committee. Animals were anaesthetized with ketamine, xylazine, and isoflurane prior to surgery and were euthanized when tumors reached 2 cm in diameter.” for “Committee.”

Row | Structure (SMILES) | LAGκ-1A tumor growth compared to control (LAGκ-1A tumors) | LAGκ-2 tumor growth compared to control (LAGκ-2 tumors)
1 | C[C@@H]1C[C@H]2[C@@H]3CCC4=CC(=O)C=C[C@]4(C)[C@@]3(F)[C@@H](O)C[C@]2(C)[C@@]1(O)C(=O)CO [dexamethasone] | not inhibited | not inhibited
2 | Nc1cccc2c1CN(C1CCC(=O)NC1=O)C2=O (stereo not drawn) [lenalidomide] | not inhibited | not inhibited
3 | N#CC[C@H](C1CCCC1)n1cc(-c2ncnc3[nH]ccc23)cn1 [ruxolitinib] | not inhibited | not inhibited
